Some results are limits rather than exact numbers.

A short description of assay [1]: Inhibition of Saccharomyces cerevisiae alpha-glucosidase using maltose as substrate preincubated for 5 mins followed by substrate addition and measured after 15 mins by LC-TQ-MS/MS analysis.
The nature of assay [2]: Inhibition of Saccharomyces cerevisiae alpha-glucosidase using PNPG as substrate incubated for 10 mins by spectrophotometric method.
Assay [3] addresses T1, Tissue alpha-L-fucosidase (Bos taurus, UniProt Q2KIM0).
T1 sequence (Q2KIM0 whole entry): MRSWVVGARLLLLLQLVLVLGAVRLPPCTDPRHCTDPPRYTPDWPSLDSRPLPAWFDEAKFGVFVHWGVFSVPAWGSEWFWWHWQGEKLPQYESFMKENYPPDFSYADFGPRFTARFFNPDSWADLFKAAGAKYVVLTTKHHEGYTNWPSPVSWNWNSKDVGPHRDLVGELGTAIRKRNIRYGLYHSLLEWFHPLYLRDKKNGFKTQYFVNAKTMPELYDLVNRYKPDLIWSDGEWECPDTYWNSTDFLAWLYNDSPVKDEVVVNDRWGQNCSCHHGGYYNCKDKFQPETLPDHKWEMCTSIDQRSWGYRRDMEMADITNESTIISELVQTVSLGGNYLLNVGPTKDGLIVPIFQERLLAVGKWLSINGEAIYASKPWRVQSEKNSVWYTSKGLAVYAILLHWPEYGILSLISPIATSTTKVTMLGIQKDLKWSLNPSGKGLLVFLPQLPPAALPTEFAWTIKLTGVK
Kind of assay: Inhibition of bovine kidney alpha-fucosidase using […] as substrate incubated for 10 mins by spectrophotometric method.

Assay [4] has as its target T2, Alpha-mannosidase (Canavalia ensiformis) (UniProt C0HJB3).
T2 sequence (whole entry): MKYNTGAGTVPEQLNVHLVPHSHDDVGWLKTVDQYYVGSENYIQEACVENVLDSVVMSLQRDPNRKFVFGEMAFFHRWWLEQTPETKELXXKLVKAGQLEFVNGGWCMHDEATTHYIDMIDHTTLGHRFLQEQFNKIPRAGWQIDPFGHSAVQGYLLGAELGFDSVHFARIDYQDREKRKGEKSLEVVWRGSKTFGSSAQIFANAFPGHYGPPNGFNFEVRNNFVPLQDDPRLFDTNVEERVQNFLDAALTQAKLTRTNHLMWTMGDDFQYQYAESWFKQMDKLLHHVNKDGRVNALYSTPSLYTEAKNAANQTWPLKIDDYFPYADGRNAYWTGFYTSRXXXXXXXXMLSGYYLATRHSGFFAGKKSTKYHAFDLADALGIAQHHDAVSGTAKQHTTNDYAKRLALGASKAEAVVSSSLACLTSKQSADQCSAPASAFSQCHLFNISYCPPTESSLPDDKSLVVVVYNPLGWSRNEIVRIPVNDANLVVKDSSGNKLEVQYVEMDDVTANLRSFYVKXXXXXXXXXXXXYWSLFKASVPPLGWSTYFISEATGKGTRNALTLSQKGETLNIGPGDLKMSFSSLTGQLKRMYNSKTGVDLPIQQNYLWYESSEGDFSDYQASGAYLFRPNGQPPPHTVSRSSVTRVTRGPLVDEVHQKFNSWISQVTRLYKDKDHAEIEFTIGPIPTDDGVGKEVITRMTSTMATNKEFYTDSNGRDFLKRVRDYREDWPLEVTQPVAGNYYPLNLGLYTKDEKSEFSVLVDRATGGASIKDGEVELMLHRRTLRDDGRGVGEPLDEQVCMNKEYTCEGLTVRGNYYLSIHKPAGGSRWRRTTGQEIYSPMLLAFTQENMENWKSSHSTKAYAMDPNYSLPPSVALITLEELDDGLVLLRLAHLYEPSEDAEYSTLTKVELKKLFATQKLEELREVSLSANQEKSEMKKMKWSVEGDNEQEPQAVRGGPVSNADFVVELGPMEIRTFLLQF
Nature of the assay: Inhibition of jack bean alpha-mannosidase at 1 mM using […] as substrate incubated for 10 mins by spectrophotometric method.

Assay [5] concerns the target T3, Tissue alpha-L-fucosidase (Bos taurus) (UniProt Q2KIM0).
T3 sequence (whole entry): T1 sequence (Q2KIM0 whole entry)
Kind of assay: Inhibition of bovine kidney alpha-fucosidase at 1 mM using […] as substrate incubated for 10 mins by spectrophotometric method.

For the next assay, the target named is T4, Alpha-mannosidase (Canavalia ensiformis, UniProt C0HJB3).
T4 sequence (C0HJB3 whole entry): T2 sequence (whole entry)
Nature of the assay: Inhibition of jack bean alpha-mannosidase using […] as substrate incubated for 10 mins by spectrophotometric method.

The next assay has as its system Saccharomyces cerevisiae. Nature of the assay: Inhibition of Saccharomyces cerevisiae alpha-glucosidase at 1 mM using PNPG as substrate incubated for 10 mins by spectrophotometric method.
The target of another assay is Maltase-glucoamylase (Homo sapiens, UniProt O43451). Nature of the assay: Inhibition of alpha-glucosidase (unknown origin) using sucrose as substrate incubated for 30 mins.
Chain of Maltase-glucoamylase (O43451 whole entry): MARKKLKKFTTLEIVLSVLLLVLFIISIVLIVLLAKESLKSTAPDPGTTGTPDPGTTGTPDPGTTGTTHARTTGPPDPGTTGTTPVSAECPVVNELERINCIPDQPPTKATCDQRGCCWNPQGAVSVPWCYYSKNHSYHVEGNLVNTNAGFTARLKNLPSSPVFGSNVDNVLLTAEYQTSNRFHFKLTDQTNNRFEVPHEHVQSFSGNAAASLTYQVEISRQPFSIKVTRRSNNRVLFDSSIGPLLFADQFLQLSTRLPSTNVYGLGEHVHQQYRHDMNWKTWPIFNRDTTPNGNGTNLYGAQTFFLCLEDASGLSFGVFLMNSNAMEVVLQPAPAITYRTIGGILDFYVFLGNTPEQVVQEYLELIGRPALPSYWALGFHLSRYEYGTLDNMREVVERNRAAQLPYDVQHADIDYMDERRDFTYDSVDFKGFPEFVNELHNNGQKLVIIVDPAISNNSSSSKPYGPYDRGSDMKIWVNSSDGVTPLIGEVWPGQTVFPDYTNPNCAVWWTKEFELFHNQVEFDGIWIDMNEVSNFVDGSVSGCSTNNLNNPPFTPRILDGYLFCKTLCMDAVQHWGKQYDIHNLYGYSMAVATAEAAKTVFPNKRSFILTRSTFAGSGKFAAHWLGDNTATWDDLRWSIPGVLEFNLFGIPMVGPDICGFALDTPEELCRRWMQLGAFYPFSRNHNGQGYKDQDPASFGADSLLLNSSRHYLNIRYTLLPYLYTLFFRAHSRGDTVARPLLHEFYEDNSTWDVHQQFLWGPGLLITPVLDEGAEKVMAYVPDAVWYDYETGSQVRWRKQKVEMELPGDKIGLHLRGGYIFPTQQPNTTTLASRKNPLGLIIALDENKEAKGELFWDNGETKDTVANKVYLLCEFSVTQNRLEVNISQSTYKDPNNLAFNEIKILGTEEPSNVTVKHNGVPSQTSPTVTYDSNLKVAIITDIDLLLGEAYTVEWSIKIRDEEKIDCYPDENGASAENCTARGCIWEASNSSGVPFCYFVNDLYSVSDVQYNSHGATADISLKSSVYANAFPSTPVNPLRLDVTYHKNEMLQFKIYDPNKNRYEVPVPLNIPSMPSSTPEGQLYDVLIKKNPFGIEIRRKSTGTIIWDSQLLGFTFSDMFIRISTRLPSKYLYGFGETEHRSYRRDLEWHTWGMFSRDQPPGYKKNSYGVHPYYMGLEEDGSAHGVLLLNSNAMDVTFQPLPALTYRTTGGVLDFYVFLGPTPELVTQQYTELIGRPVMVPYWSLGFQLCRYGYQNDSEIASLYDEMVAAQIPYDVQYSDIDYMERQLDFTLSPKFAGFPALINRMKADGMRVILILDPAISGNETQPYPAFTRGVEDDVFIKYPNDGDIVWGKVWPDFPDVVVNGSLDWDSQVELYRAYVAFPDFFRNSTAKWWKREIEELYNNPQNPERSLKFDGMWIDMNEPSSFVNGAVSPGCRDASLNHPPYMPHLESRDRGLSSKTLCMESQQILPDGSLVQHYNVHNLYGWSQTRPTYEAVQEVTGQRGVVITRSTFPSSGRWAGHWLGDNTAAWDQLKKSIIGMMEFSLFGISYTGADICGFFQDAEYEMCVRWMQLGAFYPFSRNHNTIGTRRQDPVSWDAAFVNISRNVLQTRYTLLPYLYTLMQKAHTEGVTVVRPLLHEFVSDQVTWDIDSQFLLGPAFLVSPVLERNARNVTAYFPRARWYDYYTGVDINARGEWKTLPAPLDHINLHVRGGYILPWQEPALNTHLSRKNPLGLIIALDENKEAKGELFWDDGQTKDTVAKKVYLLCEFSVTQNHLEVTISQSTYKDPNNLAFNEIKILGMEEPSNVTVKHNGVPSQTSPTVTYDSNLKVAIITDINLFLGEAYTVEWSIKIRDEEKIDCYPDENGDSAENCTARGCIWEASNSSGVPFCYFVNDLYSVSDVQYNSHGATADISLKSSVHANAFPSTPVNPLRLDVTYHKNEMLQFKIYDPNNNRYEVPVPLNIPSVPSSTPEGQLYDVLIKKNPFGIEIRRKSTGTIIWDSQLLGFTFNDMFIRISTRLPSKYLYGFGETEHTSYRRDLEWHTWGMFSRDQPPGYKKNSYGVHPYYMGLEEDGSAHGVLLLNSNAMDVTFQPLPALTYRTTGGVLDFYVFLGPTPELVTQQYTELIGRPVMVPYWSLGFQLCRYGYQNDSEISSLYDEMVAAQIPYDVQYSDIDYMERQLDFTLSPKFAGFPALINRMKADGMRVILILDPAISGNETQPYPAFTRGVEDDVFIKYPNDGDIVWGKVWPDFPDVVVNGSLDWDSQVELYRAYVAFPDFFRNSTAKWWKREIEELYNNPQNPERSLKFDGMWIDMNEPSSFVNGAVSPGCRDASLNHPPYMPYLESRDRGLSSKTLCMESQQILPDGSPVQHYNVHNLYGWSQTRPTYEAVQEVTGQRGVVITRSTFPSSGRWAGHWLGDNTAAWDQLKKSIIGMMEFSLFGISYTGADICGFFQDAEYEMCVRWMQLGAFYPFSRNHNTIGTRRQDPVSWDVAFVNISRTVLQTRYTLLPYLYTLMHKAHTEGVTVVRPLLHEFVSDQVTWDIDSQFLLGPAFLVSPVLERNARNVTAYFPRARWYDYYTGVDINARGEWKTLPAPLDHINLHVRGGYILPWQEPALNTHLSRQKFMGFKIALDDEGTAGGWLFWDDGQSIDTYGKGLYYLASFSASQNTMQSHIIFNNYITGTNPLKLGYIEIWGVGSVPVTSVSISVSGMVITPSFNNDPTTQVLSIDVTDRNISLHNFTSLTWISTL

Regarding `Cc1cc(O)c2c(c1)C(=O)c1cc(O)cc(O)c1C2=O` [EMODIN], the concentration for half-maximal inhibition (IC50) in assay [1] came out at 4.12 µM; in assay [2], 26.4 µM; in assay [3], 32 µM. In assay [4], this compound returned an inhibition of less than 50%.
In turn, `Cc1cc2c(c(=O)[nH]1)C(=O)O/C2=C\c1ccc(CO)n1-c1ccc(F)cc1` had an IC50 in assay [2] of 20.7 µM. Also, the inhibition in assay [5] and in assay [4] was less than 50% throughout.
In the case of `Cc1ccc(S(=O)(=O)Nc2cccc(C(=O)/C=C/c3ccc(O)cc3)c2)cc1`, the IC50 in assay [2] turned out to be 82.7 µM; in assay [3], 91 µM; against Alpha-mannosidase, 105 µM.
Consider `O=C1c2cccc(O)c2C(=O)c2c(O)cc(CO)cc21` [ALOE-EMODIN], for which the IC50 in assay [1] amounted to 4.56 µM; in assay [2], 26.4 µM; in assay [3] it was 32 µM. Besides, the inhibition in assay [4] is less than 50%.
Turning to `O=C1Nc2cc(Cl)ccc2/C1=C/c1ccccc1[N+](=O)[O-]`, the IC50 came out at 15 µM in assay [2], 65 µM in assay [3] and 28 µM on Alpha-mannosidase.
In turn, `Cc1cc2c(c(=O)[nH]1)C(=O)O/C2=C\c1ccc(CO)n1-c1ccc(Cl)cc1` displayed an IC50 in assay [2] of 21.9 µM. Also, the inhibition in assay [5] and in assay [4] was less than 50% in each case.
In the case of `Cc1cc2c(c(=O)[nH]1)C(=O)O/C2=C\c1ccc(CO)n1-c1ccccc1`, the half-maximal inhibitory concentration (IC50) in assay [2] was 27.4 µM; in assay [3] it was 38.4 µM; at Alpha-mannosidase, 61.4 µM.
In the case of `O=C(O)c1cc(O)c2c(c1)C(=O)c1cccc(O)c1C2=O` [RHEIN], the IC50 in assay [1] came to 5.68 µM; in assay [2], 26.4 µM; in assay [3], 32 µM. For the same compound, the inhibition in assay [4] was less than 50%.
Turning to `C=CC(C)(C)c1c2c(c(O)c3c(=O)c4ccc(O)c(O)c4oc13)C=CC(C)(C)O2` [MACLURAXANTHONE], the 50% inhibitory concentration (IC50) in assay [2] came out at 62.3 µM. In addition, the inhibition in assay [5] and in assay [4] was less than 50% throughout.
With `O=c1c2cc(O)c(O)cc2oc2cc(O)cc(O)c12`, the midpoint of inhibition in assay [2], the IC50, lay at 62.3 µM. The inhibition in assay [5] and in assay [4] was less than 50% each time.
As for `Cc1cc2c(c(=O)[nH]1)C(=O)O/C2=C\c1ccc(CO)n1CCc1c[nH]c2ccccc12`, the IC50 was found to be 4.4 µM in assay [2] and 12.9 µM in assay [3]. In assay [4], the inhibition was less than 50%.
With `O=C(N/N=C/c1ccc(Cl)cc1)c1ccc(-c2nc3ccccc3s2)cc1`, the figures for the IC50 (in assay [2]; at Alpha-mannosidase) were 20.5 µM and 15 µM, respectively. The same compound had an inhibition in assay [5] of less than 50%.
In the case of `Cc1cc2c(c(=O)[nH]1)C(=O)O/C2=C\c1ccc(CO)n1CCc1ccccc1`, the inhibition (with Saccharomyces cerevisiae; in assay [5]; in assay [4]) was less than 50% each time.
For the compound `Cc1ccc(S(=O)(=O)Nc2ccc(C(=O)/C=C/c3ccc(O)cc3)cc2)cc1`, the figures for the half-maximal inhibitory concentration (IC50) (in assay [2]; in assay [3]; at Alpha-mannosidase) were 82.7 µM, 91 µM and 105 µM, respectively.
As to `C#CCn1c(/C=C2\OC(=O)c3c2cc(C)[nH]c3=O)ccc1CO`, the inhibition (with Saccharomyces cerevisiae; in assay [5]; in assay [4]) was less than 50% in each case.
As to `C=CCn1c(/C=C2\OC(=O)c3c2cc(C)[nH]c3=O)ccc1CO`, the inhibition (in the assay on Saccharomyces cerevisiae; in assay [5]; in assay [4]) was less than 50% each time.
Take `Cc1cc2c(c(=O)[nH]1)C(=O)O/C2=C\c1ccc(CO)n1-c1ccccc1C`: the inhibition (in the assay with Saccharomyces cerevisiae; in assay [5]; in assay [4]) was less than 50% in each case.
Compound `C=CC(C)(C)c1c(O)cc2oc3c(CC=C(C)C)c(O)c(O)cc3c(=O)c2c1O` [CUDRAXANTHONE L] had an IC50 in assay [2] of 62.3 µM. The inhibition in assay [5] and in assay [4] was less than 50% each time.
Consider `O=C1Nc2cc(Cl)ccc2/C1=C/c1ccc(O)c(O)c1`, for which the IC50 in assay [2] worked out at 15 µM; in assay [3], 65 µM; at Alpha-mannosidase, 28 µM.
As for `CC(C)=CCc1cc(-c2oc3cc(O)c(CC=C(C)C)c(O)c3c(=O)c2O)cc(O)c1O` [BROUSSONOL E], the IC50 was found to be 85.9 µM in assay [2] and 89 µM in assay [3]. This compound returned an inhibition in assay [4] of less than 50%.
Consider `Cc1cc2c(c(=O)[nH]1)C(=O)O/C2=C\c1ccc(CO)n1-c1ccc(O)cc1`, for which the results for the concentration for half-maximal inhibition (IC50) in assay [2] and in assay [3] were 33.3 µM and 21.7 µM, respectively. The same compound registered an inhibition in assay [4] of less than 50%.
As to `Cc1cc2c(c(=O)[nH]1)C(=O)O/C2=C\c1ccc(CO)n1Cc1ccccc1`, the half-maximal inhibitory concentration (IC50) in assay [2] was 20.8 µM; in assay [3], 51.1 µM; against Alpha-mannosidase it was 92.3 µM.
In the case of `OC[C@@H]1N[C@@H](c2ccc(O)cc2)[C@H](O)[C@H]1O`, the half-inhibitory concentration (IC50) against Maltase-glucoamylase was 9.3 µM; in assay [2], 25.2 µM; in assay [3], 41 µM; on Alpha-mannosidase it was 28 µM.
In turn, `CC(C)=CCc1cc(C(=O)/C=C/c2ccc(O)c(O)c2)c(O)cc1O` [BROUSSOCHALCONE A] showed a half-maximal inhibitory concentration (IC50) in assay [2] of 101 µM. Also, the inhibition in assay [5] and in assay [4] was less than 50% each time.
As to `CC(C)c1ccc(/C=C2\C(=O)Nc3cc(Cl)ccc32)cc1`, the IC50 stood at 15 µM in assay [2], 65 µM in assay [3] and 28 µM on Alpha-mannosidase.
The corresponding values for `Cc1ccc(S(=O)(=O)Nc2ccc(C(=O)/C=C/c3ccc(O)c(O)c3)cc2)cc1` are 82.7 µM, 91 µM and 105 µM.
For `OCc1ccc2n1C[C@@H](c1ccc(O)cc1)OC2`, the half-maximal inhibitory concentration (IC50) amounted to 5.01 µM in assay [2], 21 µM in assay [3] and 14 µM on Alpha-mannosidase.
In assay [2], `Oc1cc(O)cc(/C=C/c2cc(O)c(O)c(O)c2)c1` showed an IC50 of 31.1 µM. The inhibition in assay [5] and in assay [4] was less than 50% each time.
Take `COc1cc(O)c2c(c1)C(=O)c1cc(C)cc(O)c1C2=O` [PHYSCION]: the 50% inhibitory concentration (IC50) in assay [1] is 5.32 µM; in assay [2], 26.4 µM; in assay [3] it was 32 µM. Moreover, the inhibition in assay [4] is less than 50%.
On to `COc1ccc([C@@H]2N[C@@H](CO)[C@H](O)[C@H]2O)cc1O` [L-RADICAMINE A], for which the concentration for half-maximal inhibition (IC50) came to 6.7 µM at Maltase-glucoamylase, 25.2 µM in assay [2], 41 µM in assay [3] and 28 µM against Alpha-mannosidase.
With `Cc1ccc(S(=O)(=O)Nc2cccc(C(=O)/C=C/c3ccc(O)c(O)c3)c2)cc1`, the values for the half-maximal inhibitory concentration (IC50) (in assay [2]; in assay [3]; against Alpha-mannosidase) were 82.7 µM, 91 µM and 105 µM, respectively.

The values are drawn from ChEMBL document CHEMBL4680156, “Discovery of novel pyrido-pyrrolidine hybrid compounds as alpha-glucosidase inhibitors and alternative agent for control of type 1 diabetes” (Eur J Med Chem, 2020).
